Data reported in patent US7109193B2, “Tricyclic diazepines tocolytic oxytocin receptor antagonists” (Wyeth, priority 2001, dated 2006).

Molecular target: T1, human oxytocin receptor (Homo sapiens, UniProt P30559)
T1 construct: host or cells: CHO cells (pcDNA3.1 vector)
T1 sequence (P30559 1-389): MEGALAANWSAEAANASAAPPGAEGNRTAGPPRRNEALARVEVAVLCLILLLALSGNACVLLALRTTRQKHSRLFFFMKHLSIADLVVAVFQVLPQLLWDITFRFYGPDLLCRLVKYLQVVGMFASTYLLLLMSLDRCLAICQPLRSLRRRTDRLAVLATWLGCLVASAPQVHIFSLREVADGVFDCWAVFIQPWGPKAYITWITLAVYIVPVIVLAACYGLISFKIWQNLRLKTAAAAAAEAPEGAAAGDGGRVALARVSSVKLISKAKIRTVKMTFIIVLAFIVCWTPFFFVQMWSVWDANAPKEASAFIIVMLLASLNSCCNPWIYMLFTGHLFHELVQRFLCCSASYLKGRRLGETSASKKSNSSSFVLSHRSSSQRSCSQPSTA
Test: Oxytocin binding in Chinese Hamster Ovary cell membranes expressing human oxytocin receptors
Details: CHO cell membranes, [3H]oxytocin; for IC50: values in parentheses, read-out: OT (IC50); for inhibition at 0.1 µM: 100 nM, values without parentheses, read-out: OT % inhibition @ 100% nM

IC50 [nM] | inhibition at 0.1 µM [%] | Structure (SMILES)
12.1 |  | C=CCN1CCN(C(=O)c2ccc3n2Cc2ccccc2N(C(=O)c2cc(Cl)c(-c4ccccc4C)cc2OC)C3)CC1 [Example 219, (4-Allyl-1-piperazinyl){10-[(6-chloro-3-methoxy-2′-methyl[1,1′-biphenyl]-4-yl)carbonyl]-10,11-dihydro-5H-pyrrolo[2,1-c][1,4]benzodiazepin-3-yl}methanone]
14.5 |  | COc1cc(-c2ccccc2F)c(Cl)cc1C(=O)N1Cc2cccn2Cc2ccccc21 [Example 18B, 10-{[6-Chloro-3-methoxy-2′-fluoro-[1,1′-biphenyl]-4-yl]carbonyl}-10,11-dihydro-5H-pyrrolo[2,1-c][1,4]benzodiazepine]
4.63 |  | COc1cccc(-c2cc(OC)c(C(=O)N3Cc4ccc(C(=O)N(C)CCN(C)C)n4Cc4ccccc43)cc2Cl)c1 [Example 87, 10-[(6-Chloro-3,3′-dimethoxy[1,1′-biphenyl]-4-yl)carbonyl]-N-[2-(dimethylamino)ethyl]-N-methyl-10,11-dihydro-5H-pyrrolo[2,1-c][1,4]benzodiazepine-3-carboxamide]
5.39 |  | COc1cc(-c2ccccc2C)c(Cl)cc1C(=O)N1Cc2ccc(C(=O)N3CCN(CCN(C)C)CC3)n2Cc2ccccc21 [Example 197, {10-[(6-Chloro-3-methoxy-2′-methyl[1,1′-biphenyl]-4-yl)carbonyl]-10,11-dihydro-5H-pyrrolo[2,1-c][1,4]benzodiazepin-3-yl}{4-[2-(dimethylamino)ethyl]-1-piperazinyl}methanone]
6.7 |  | COc1ccccc1-c1ccc(C(=O)N2Cc3ccc(C(=O)N4CCC(N5CCCCC5)CC4)n3Cc3ccccc32)cc1 [Example 111, {10-[(2′-Methoxy[1,1′-biphenyl]-4-yl)carbonyl]-10,11-dihydro-5H-pyrrolo[2,1-c][1,4]benzodiazepin-3-yl}[4-(1-piperidinyl)-1-piperidinyl]methanone]
1.81 |  | COc1cc(C(=O)N2Cc3ccc(C(=O)N4CCC[C@H]4CN4CCCC4)n3Cc3ccccc32)ccc1-c1ccccc1C(F)(F)F [Example 20, {[10-(2-Methoxy)-2′-trifluoromethyl-[1,1′-biphenyl]-4-yl]carbonyl}-[(2S)-[(2-pyrrolidin-1-yl)methyl]pyrrolidin-1-yl]-10,11-dihydro-5H-pyrrolo[2,1-c][1,4]benzodiazepin-3-yl-methanone]
2.31 |  | COc1cccc(-c2ccc(C(=O)N3Cc4ccc(C(=O)N5CCC[C@H]5CN5CCCC5)n4Cc4ccccc43)cc2C)c1 [Example 263, {10-[(3′-Methoxy-2-methyl[1,1′-biphenyl]-4-yl)carbonyl]-10,11-dihydro-5H-pyrrolo[2,1-c][1,4]benzodiazepin-3-yl}[(2S)-2-(1-pyrrolidinylmethyl)pyrrolidinyl]methanone]
7.2 |  | C=CCN1CCN(C(=O)c2ccc3n2Cc2ccccc2N(C(=O)c2ccc(-c4ccccc4C)c(C)c2)C3)CC1 [Example 220, (4-Allyl-1-piperazinyl){10-[(2,2′-dimethyl[1,1′-biphenyl]-4-yl)carbonyl]-10,11-dihydro-5H -pyrrolo[2,1-c][1,4]benzodiazepin-3-yl}methanone]
 | 90 | COc1cc(C(=O)N2Cc3ccc(C(=O)N(C)CCN(C)C)n3Cc3ccccc32)ccc1-c1cccc2ccccc12 [Example 93, N-[2-(Dimethylamino)ethyl]-10-[3-methoxy-4-(1-naphthyl)benzoyl]-N-methyl-10,11-dihydro-5H-pyrrolo[2,1-c][1,4]benzodiazepine-3-carboxamide]
 | 35 | COc1cccc(-c2cc(OC)c(C(=O)N3Cc4ccc(C(=O)NCCCN(C)C)n4Cc4ccccc43)cc2Cl)c1 [Example 79, 10-[(6-Chloro-3,3′-dimethoxy[1,1′-biphenyl]-4-yl)carbonyl]-N-[3-(dimethylamino)propyl]-10,11-dihydro-5H-pyrrolo[2,1-c][1,4]benzodiazepine-3-carboxamide]
 | 94 | COc1ccccc1-c1ccc(C(=O)N2Cc3ccc(C(=O)N(C)CCN(C)C)n3Cc3ccccc32)cc1OC [Example 94, 10-[(2,2′-Dimethoxy[1,1′-biphenyl]-4-yl)carbonyl]-N-[2-(dimethylamino)ethyl]-N-methyl-10,11-dihydro-5H-pyrrolo[2,1-c][1,4]benzodiazepine-3-carboxamide]
 | 99 | COc1cc(C(=O)N2Cc3ccc(C(=O)N(C)CCN(C)C)n3Cc3ccccc32)ccc1-c1ccccc1C [Example 92, N-[2-(Dimethylamino)ethyl]-10-[(2-methoxy-2′-methyl[1,1′-biphenyl]-4-yl)carbonyl]-N-methyl-10,11-dihydro-5H-pyrrolo[2,1-c][1,4]benzodiazepine-3-carboxamide]
6.29 |  | Cc1cc(C(=O)N2Cc3ccc(C(=O)N4CC[C@@H](N(C)C)C4)n3Cc3ccccc32)ccc1-c1ccccc1C(F)(F)F [Example 271, [(3R)-3-(Dimethylamino)pyrrolidinyl](10-{[2-methyl-2′-(trifluoromethyl)[1,1′-biphenyl]-4-yl]carbonyl}-10,11-dihydro-5H-pyrrolo[2,1-c][1,4]benzodiazepin-3-yl)methanone]
1.7 |  | COc1cc(C(=O)N2Cc3ccc(C(=O)N(C)CCCN(C)C)n3Cc3ccccc32)ccc1-c1ccccc1C(F)(F)F [Example 21, N-Methyl-[N-(3-dimethylamino)propyl]-10-{[2-methoxy-2′-trifluoromethyl-[1,1′-biphenyl]-4-yl]carbonyl}-10,11-dihydro-5H-pyrrolo[2,1-c][1,4]benzodiazepin-3-carboxamide]
3.02 |  | Cc1cc(C(=O)N2Cc3ccc(C(=O)N(C)CCN(C)C)n3Cc3ccccc32)ccc1-c1ccccc1C(F)(F)F [Example 85, N-[2-(Dimethylamino)ethyl]-N-methyl-10-{[2-methyl-2′-(trifluoromethyl)[1,1′-biphenyl]-4-yl]carbonyl}-10,11-dihydro-5H-pyrrolo[2,1-c][1,4]benzodiazepine-3-carboxamide]
 | 98 | COc1ccccc1-c1ccc(C(=O)N2Cc3ccc(C(=O)N(C)CCCN(C)C)n3Cc3ccccc32)cc1C [Example 100, N-[3-(Dimethylamino)propyl]-10-[(2′-methoxy-2-methyl[1,1′-biphenyl]-4-yl)carbonyl]-N-methyl-10,11-dihydro-5H-pyrrolo[2,1-c][1,4]benzodiazepine-3-carboxamide]
55.8 |  | Cc1ccc(-c2ccc(C(=O)N3Cc4cccn4Cc4ccccc43)cc2)c2ccccc12 [Example 25, [4-(4-Methyl-naphthalen-1-yl)phenyl][10,11-dihydro-5H-pyrrolo[2,1-c][1,4]benzodiazepin-10-yl]methanone]
7.93 |  | COc1cc(-c2ccccc2C)c(Cl)cc1C(=O)N1Cc2ccc(C(=O)N3CCC(N4CCCCC4)CC3)n2Cc2ccccc21 [Example 110, {10-[(6-Chloro-3-methoxy-2′-methyl[1,1′-biphenyl]-4-yl)carbonyl]-10,11-dihydro-5H-pyrrolo[2,1-c][1,4]benzodiazepin-3-yl}[4-(1-piperidinyl)-1-piperidinyl]methanone]
2.85 |  | Cc1cc(C(=O)N2Cc3ccc(C(=O)N4CCC[C@H]4CN4CCCC4)n3Cc3ccccc32)ccc1-c1ccccc1C(F)(F)F [Example 258, (10-{[2-Methyl-2′-(trifluoromethyl)[1,1′-biphenyl]-4-yl]carbonyl}-10,11-dihydro-5H-pyrrolo[2,1-c][1,4]benzodiazepin-3-yl)[(2S)-2-(1-pyrrolidinylmethyl)pyrrolidinyl]methanone]
5.39 |  | COc1cc(-c2ccccc2C)c(Cl)cc1C(=O)N1Cc2ccc(C(=O)N3CCCN(C)CC3)n2Cc2ccccc21 [Example 60, {10-[(6-Chloro-3-methoxy-2′-methyl[1,1′-biphenyl]-4-yl)carbonyl]-10,11-dihydro-5H-pyrrolo[2,1-c][1,4]benzodiazepin-3-yl}(4-methyl-1,4-diazepan-1-yl)methanone]
4.26 |  | COc1cc(-c2ccccc2C)c(Cl)cc1C(=O)N1Cc2ccc(C(=O)N3CC[C@@H](N(C)C)C3)n2Cc2ccccc21 [Example 273, {10-[(6-Chloro-3-methoxy-2′-methyl[1,1′-biphenyl]-4-yl)carbonyl]-10,11-dihydro-5H-pyrrolo[2,1-c][1,4]benzodiazepin-3-yl}[(3R)-3-(dimethylamino)pyrrolidinyl]methanone]
11.1 |  | C=CCN1CCN(C(=O)c2ccc3n2Cc2ccccc2N(C(=O)c2ccc(-c4ccccc4OC)cc2)C3)CC1 [Example 221, (4-Allyl-1-piperazinyl){10-[(2′-methoxy[1,1′-biphenyl]4-yl)carbonyl]-10,11-dihydro-5H -pyrrolo[2,1-c][1,4]benzodiazepin-3-yl}methanone]
2.31 |  | COc1cc(-c2ccccc2C)c(Cl)cc1C(=O)N1Cc2ccc(C(=O)N(C)CCN(C)C)n2Cc2ccccc21 [Example 86, 10-[(6-Chloro-3-methoxy-2′-methyl[1,1′-biphenyl]-4-yl)carbonyl]-N-[2-(dimethylamino)ethyl]-N-methyl-10,11-dihydro-5H-pyrrolo[2,1-c][1,4]benzodiazepine-3-carboxamide]
7.87 |  | COc1cccc(-c2ccc(C(=O)N3Cc4ccc(C(=O)N5CC[C@@H](N(C)C)C5)n4Cc4ccccc43)cc2C)c1 [Example 278, [(3R)-3-(Dimethylamino)pyrrolidinyl]{10-[(3′-methoxy-2-methyl[1,1′-biphenyl]-4-yl)carbonyl]-10,11-dihydro-5H-pyrrolo[2,1-c][1,4]benzodiazepin-3-yl}methanone]
